Legend:
Type in all cases: in vivo
NMDA-induced convulsions = assay: Neuroprotective/anticonvulsant activity against NMDA-induced convulsions and mortality in mice; conditions: for CD50 (95% confidence interval): icv, NMDA 1 nmole/mouse; for CD50 (95% confidence interval) / time course of protecting effects: mice; for neuroprotectant activity, dose dependence: NMDA challenge in mice, FIGS. 1-3; for time course of protecting effects: i.c.v. preadministration at various doses, NMDA challenge
Description: The term CD50 as shown in Table 1 is defined as the dose of drug which induces a 50% reduction in the number of deaths caused by NMDA administration.
For purposes of comparison, the compounds of the present invention and reference standards were administered to mice and the time course of neuroprotectant activity was determined subsequent to challenge by NMDA. Compounds were administered i.c.v. or i.p. at different times and concentrations prior to injection of NMDA (1 nmol/mouse, I.C.V.). The mortality rate (CD50) TABLE I and the response curves.
In FIG. 1, dextrorphan was i.c.v. preadministered at a concentration of 1.0 (closed circle); 5.0 (open square); and 10 (closed square) nmole/mouse. The open circle represents preadministration of saline at a concentration of 10 μl/mouse.
A does dependent time course profile of the neuroprotectant activity against NMDA induced convulsions of compound #9 in mice is illustrated in FIG. 3. […] In both FIGS. 2 and 3, the respective compound was preadministered at (open circle); 50 (closed circle); and 100 (closed square) nmole/mouse.
Comparison of anticonvulsant activity of compounds of the
present invention and dextrorphan against NMDA-induced
convulsions in mice (at 1 nmole/mouse)

[1] = Motor coordination by rotarod; conditions: 8 rpm, Compound #13 compared to dextrorphan
Description: Motor effects illicited by various antagonists were assessed using a rotarod treadmill (model 7600, UGO Basile, Italy). The method used was similar to the procedure described by Dunhamand Miya (J. Am. Pharmac. Assoc. 46 208-209-1957). The apparatus consisted of a rod of 2.5 cm diameter which was suspended horizontally 50 cm above a working area. The rod was turned at a speed of 8 rpm. Circular perplex separators were placed at intervals along the rod so that five animals could be tested simultaneously. All animals were conditioned to the rod for two consecutive days prior to experimentation.
The results of a study in which comparative motor impairment caused by Compound #13 was compared to dextrorphan, as assessed by rotarod.

[2] = Locomotion and falling behaviour; conditions: I.C.V., mice, observed 15 to 30 minutes
Description: Mice were place individually in observation cages for a 60 minute habituation period. They were injected I.C.V. with test compounds and observed for 15 to 30 minutes. Locomotion and falling behavior were assessed according to the procedure of Koek and Colpaert (J. Pharm. Exp. Therm. 252 349-357, 1990). For each animal, the presence of locomotor activity and falling behaviour was recorded. Statistical significance of drug-induced changes in the occurrence of a particular behaviour was tested by means of the method of Fray et al. (Psycopharmacol 69 253-259, 1980). MK-801, known to have intrinsic neurotoxicity, induced falling behaviour at doses as low as 1.5 nmol/mouse.

SMILES: CC12CCCCSC(Cc3ccc(O)cc31)C2N (single isomer, unassigned; (+)) [Compound #9b, (+)-trans-5,6,7,8,9,11,12-heptahydro-10-thia-3-hydroxy-5-methyl-5,11-methanobenzocyclodecen-13amine]
- CD50 (95% confidence interval) (NMDA-induced convulsions): 1.58 (0.95-2.62) nmo1/mouse

SMILES: CC12CCCCSC(Cc3ccc(O)cc31)C2NO (stereo not drawn) [Compound #10, 5,6,7,8,9,11,12-heptahydro-3-hydroxy-5-methyl-10-thia-5,11-methanobenzocyclodecene-13-β-hydroxylamine]
- CD50 (95% confidence interval) (NMDA-induced convulsions): 1.79 (0.99-3.25) nmo1/mouse

SMILES: CC12CCCCCC(Cc3ccc(O)cc31)C2N (stereo not shown) [Compound #13, 5,6,7,8,9,11,12-heptahydro-3-hydroxy-5-methyl-5, 11-methanobenzocyclodecene-13-amine, reference compound]
- neuroprotectant activity, dose dependence (NMDA-induced convulsions): dose dependent neuroprotectant activity effect
- time course of protecting effects (NMDA-induced convulsions): time-dependent decreases in the protecting effects
- CD50 (95% confidence interval) (NMDA-induced convulsions): 28.7 (15.3-53.8) nmo1/mouse
- percentage of animals showing motor effects [1]: higher for animals treated with dextrorphan than for animals treated with Compound #13

SMILES: CN1CC[C@@]23CCCC[C@@H]2[C@@H]1Cc1ccc(O)cc13 [Dextrorphan, dextrorphan, reference compound]
- neuroprotectant activity, dose dependence (NMDA-induced convulsions): dose dependent neuroprotectant activity effect
- time course of protecting effects (NMDA-induced convulsions): time-dependent decreases in the protecting effects
- CD50 (95% confidence interval) (NMDA-induced convulsions): 0.55 (0.39-0.78) nmo1/mouse
- percentage of animals showing motor effects [1]: higher for animals treated with dextrorphan than for animals treated with Compound #13

SMILES: CC12CCCCSC(Cc3ccc(O)cc31)C2NC(=N)N (stereo not drawn) [Compound #11, trans-5,6,7,8,9,11,12-heptahydro-10-thia-3-hydroxy-5-methyl-5,11-methanobenzocyclodecen-13-guanidine]
- potency relative to Dextrorphan (NMDA-induced convulsions; NMDA-induced convulsions in mice): approximately 3 fold
- anticonvulsive activity (NMDA-induced convulsions; NMDA-induced convulsions in mice, in words): greatest activity
- CD50 (95% confidence interval) (NMDA-induced convulsions): 0.16 (0.11-0.25) nmo1/mouse

SMILES: CC12CCCCSC(Cc3ccc(O)cc31)C2N (single isomer, unassigned; (-)) [Compound #9a, (-)-trans-5,6,7,8,9,11,12-heptahydro-10-thia-3-hydroxy-5-methyl-5,11-methanobenzocyclodecen-13-amine]
- CD50 (95% confidence interval) (NMDA-induced convulsions): 2.90 (1.75-4.85) nmo1/mouse

SMILES: COc1ccc2c(c1)C1(C)CCCCSC(C2)C1N (stereo not shown) [Compound #8b, 5,6,7,8,9,11,12-heptahydro-3-methoxy-5-methyl-10-thia-5,11-methanobenzocyclodecen-13-amine]
- CD50 (95% confidence interval) (NMDA-induced convulsions): 7.64 (4.8-12.0) nmo1/mouse

SMILES: CC12CCCCSC(Cc3ccc(O)cc31)C2N (stereo not shown) [Compound #9, 5,6,7,8,9,11,12-heptahydro-3-hydroxy-5-methyl-10-thia-5,11-methanobenzocyclodecen-13-amine]
- neuroprotectant activity, dose dependence (NMDA-induced convulsions): dose dependent neuroprotectant activity effect
- time course of protecting effects (NMDA-induced convulsions): time-dependent decreases in the protective effects
- CD50 (95% confidence interval) (NMDA-induced convulsions): 0.95 (0.62-1.45) nmo1/mouse

SMILES: C[C@]12N[C@H](Cc3ccccc31)c1ccccc12 [MK-801]
- dose inducing falling behaviour (as low as) [2]: 1.5 nmol/mouse
